# Tests used:
# NA-uptake = NA-uptake (Rattus norvegicus, UniProt Q63380); experiment: biochemical; conditions: for inhibition at 10 µM: read-out: NA-uptake [10 μM], % inhibition
# 5HT-uptake = target: T1, 5HT-uptake (Rattus norvegicus, UniProt P31652); experiment: biochemical; conditions: for inhibition at 10 µM: read-out: 5HT-uptake [10 μM], % inhibition
# T1 construct: synaptosomes were freshly isolated from areas of rats' brains
# T1 sequence (P31652 whole entry): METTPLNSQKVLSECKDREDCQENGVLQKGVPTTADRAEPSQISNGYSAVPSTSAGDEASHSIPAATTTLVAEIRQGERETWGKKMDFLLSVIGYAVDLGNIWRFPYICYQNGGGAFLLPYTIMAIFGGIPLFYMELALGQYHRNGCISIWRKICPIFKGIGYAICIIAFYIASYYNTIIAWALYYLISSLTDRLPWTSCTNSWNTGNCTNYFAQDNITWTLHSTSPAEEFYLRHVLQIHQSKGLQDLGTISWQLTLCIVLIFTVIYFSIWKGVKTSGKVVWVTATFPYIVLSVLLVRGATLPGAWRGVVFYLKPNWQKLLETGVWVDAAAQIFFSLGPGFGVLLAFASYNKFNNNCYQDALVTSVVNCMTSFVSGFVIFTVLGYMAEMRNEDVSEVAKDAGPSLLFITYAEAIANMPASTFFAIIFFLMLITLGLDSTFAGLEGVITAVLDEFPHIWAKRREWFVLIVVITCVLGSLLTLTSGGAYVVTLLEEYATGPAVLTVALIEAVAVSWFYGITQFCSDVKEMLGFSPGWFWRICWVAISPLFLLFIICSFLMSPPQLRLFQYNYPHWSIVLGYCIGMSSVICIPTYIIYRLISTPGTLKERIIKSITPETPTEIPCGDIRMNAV
# NA-uptake, sequence (Q63380 1-617): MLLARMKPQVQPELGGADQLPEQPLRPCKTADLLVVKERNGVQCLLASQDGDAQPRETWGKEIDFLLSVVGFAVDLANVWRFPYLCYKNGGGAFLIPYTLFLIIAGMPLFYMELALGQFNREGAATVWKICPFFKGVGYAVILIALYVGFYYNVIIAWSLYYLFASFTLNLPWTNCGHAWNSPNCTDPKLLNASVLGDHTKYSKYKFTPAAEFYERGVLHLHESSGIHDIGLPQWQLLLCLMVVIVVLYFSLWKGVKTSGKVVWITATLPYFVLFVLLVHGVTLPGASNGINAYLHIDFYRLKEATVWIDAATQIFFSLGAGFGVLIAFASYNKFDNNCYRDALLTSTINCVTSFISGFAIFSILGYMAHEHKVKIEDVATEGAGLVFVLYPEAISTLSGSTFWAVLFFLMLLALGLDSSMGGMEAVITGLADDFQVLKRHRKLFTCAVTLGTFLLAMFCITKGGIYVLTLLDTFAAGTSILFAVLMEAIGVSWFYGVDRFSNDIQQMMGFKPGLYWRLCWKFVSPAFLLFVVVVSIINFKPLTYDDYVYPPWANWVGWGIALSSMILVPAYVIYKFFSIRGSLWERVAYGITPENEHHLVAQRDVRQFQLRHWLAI
Compound,inhibition at 10 µM (NA-uptake),inhibition at 10 µM (5HT-uptake),"NA-uptake [10 μM], % inhibition (NA-uptake)","5HT-uptake [10 μM], % inhibition (5HT-uptake)"
"CN(C)C1(Cc2ccc(Cl)cc2)CCC(NC(=O)CCC(=O)NCc2cccc(Br)c2)CC1 (centres unmarked) [Example 165, N-(3-bromo-benzyl)-N′-[4-(4-chloro-benzyl)-4-dimethylamino-cyclohexyl]-succinamide]",94%,92%,–,–
"Cc1ccccc1CNC(=O)CCC(=O)NC1CCC(Cc2ccc(Cl)cc2)(N(C)C)CC1 (centres unmarked) [Example 50, N-[4-(4-chloro-benzyl)-4-dimethylamino-cyclohexyl]-N′-(2-methyl-benzyl)-succinamide]",89%,92%,–,–
"COc1ccc(N2CCN(C(=O)CCC(=O)NC3CCC(Cc4ccc(C)cc4)(N(C)C)CC3)CC2)cc1 (centres unmarked) [Example 79, N-[4-dimethylamino-4-(4-methyl-benzyl)-cyclohexyl]-4-[4-(4-methoxy-phenyl)-piperazin-1-yl]-4-oxo-butyramide]",95%,96%,–,–
"CN(CC(=O)OC(C)(C)C)C(=O)CCCC(=O)NC1CCC(Cc2ccccc2)(N(C)C)CC1 (centres unmarked) [Example 24, {[4-(4-benzyl-4-dimethylamino-cyclohexylcarbamoyl)-butyryl]-methyl-amino}-acetic acid tert butyl ester]",91%,92%,–,–
"COCC(Cc1ccccc1)NC(=O)CCC(=O)NC1CCC(Cc2cccc(Cl)c2)(N(C)C)CC1 (centres unmarked) [Example 123, N-[4-(3-chloro-benzyl)-4-dimethylamino-cyclohexyl]-N′-(1-methoxymethyl-2-phenyl-ethyl)-succinamide]",99%,92%,–,–
"CCOc1ccccc1CNC(=O)CCC(=O)NC1CCC(Cc2ccc(C)cc2)(N(C)C)CC1 (centres unmarked) [Example 138, N-[4-dimethylamino-4-(4-methyl-benzyl)-cyclohexyl]-N′-(2-ethoxy-benzyl)-succinamide]",84%,92%,–,–
"CN(C)C1(Cc2ccc(Cl)cc2)CCC(NC(=O)CCC(=O)NC2CCCC2)CC1 (centres unmarked) [Example 44, N-[4-(4-chloro-benzyl)-4-dimethylamino-cyclohexyl]-Nt-cyclopentyl-succinamide]",–,–,84%,94%
"CN(C)C1(Cc2ccccc2)CCC(NC(=O)CCCC(=O)N2CCN(C3CCCCCC3)CC2)CC1 (centres unmarked) [Example 62, 5-(4-cycloheptyl-piperazin-1-yl)-5-oxo-valeric acid (4-benzyl-4-dimethylamino-cyclohexyl)-amide]",86%,100%,–,–
"C=CCN(C)C(=O)CCC(=O)NC1CCC(Cc2ccc(Cl)cc2)(N(C)C)CC1 (centres unmarked) [Example 17, N-allyl-N′-[4-(4-chloro-benzyl)-4-dimethylamino-cyclohexyl]-N-methyl-succinamide]",82%,93%,–,–
"Cc1cccc(CC2(N(C)C)CCC(NC(=O)CCC(=O)N3CCN(Cc4c(Cl)cccc4Cl)CC3)CC2)c1 (centres unmarked) [Example 23, 4-[4-(2,6-dichloro-benzyl)-piperazin-1-yl]-N-[4-dimethylamino-4-(3-methyl-benzyl)-cyclohexyl]-4-oxo-butyramide]",92%,92%,–,–
"CN(C)C1(Cc2ccc(Cl)cc2)CCC(NC(=O)CCC(=O)N2CCC3(CC2)OCCO3)CC1 (centres unmarked) [Example 65, N-[4-(4-chloro-benzyl)-4-dimethylamino-cyclohexyl]-4-(1,4-dioxa-8-aza-spiro[4.5]dec-8-yl)-4-oxo-butyramide]",84%,92%,–,–
"CCC(NC(=O)CCC(=O)NC1CCC(Cc2ccc(Cl)cc2)(N(C)C)CC1)c1ccccc1 (centres unmarked) [Example 135, N-[4-(4-chloro-benzyl)-4-dimethylamino-cyclohexyl]-N′-(1-phenyl-propyl)-succinamide]",96%,92%,–,–
"COc1ccc(CCN(C)C(=O)CCC(=O)NC2CCC(Cc3cccc(C)c3)(N(C)C)CC2)cc1OC (centres unmarked) [Example 71, N-[2-(3,4-dimethoxy-phenyl)-ethyl]-N′-[4-dimethylamino-4-(3-methyl-benzyl)-cyclohexyl]-N-methyl-succinamide]",94%,92%,–,–

# Reference: patent publication US8088763B2 (priority 2004, dated 2012)
